As usually defined, the Ki is a measure of affinity in units of concentration, obtained from inhibition or displacement. A high value points to a looser hold on the target. As a reminder, the IC50 is the point on the concentration scale where inhibition reaches its midpoint. High values mean lower potency, low ones higher potency.

“Also recorded” adds a separate entry of the source.

The subject of assay [1] is A. lineolatus antennae. Nature of the assay: Electroantennogram (EAG) recordings. Conditions: normalized to 2-octanone; for EAG response in words: male and female adult antennae, 10% (v/v) in paraffin oil, good ligand = more than 50% of 2-octanone response; for EAG response, male versus female antennae: Student t-test between sexes. Further details: species or system Adelphocoris lineolatus. The source says:
Electrophysiological (EAG) recordings from each sex of adult individuals were made using Ag-AgCl glass pipette electrodes filled with 3 M KCl solution [69], [70]. The insects were anaesthetized by chilling, the antenna was amputated at the base and the tip of the antenna was cut off. The excised antenna was mounted between the electrodes by one teardrop of Spectra R360 electrically conductive gel (Syntech, Netherlands). The base of the antenna was connected to the reference electrode, while the terminal of tip-cut off antenna was connected to the recording electrode. An air stimulus controller CS-55 (Syntech, Netherlands) was used for air and chemical stimulants delivery with a constant flow of 10 ml/second flowed continuously over the antenna through the open end of the glass tube, which was positioned 1 cm from the antenna.
Twenty microliters of tested chemicals (100 µl/ml, 10% (v/v) dilution in paraffin oil except the hexadecanoic acid dissolved in hexane with 100 µg/ml) were applied to filter paper strips (1.5 cm×4 cm, Whatman No.1), and the solvent was allowed to evaporate for 30 sec before the paper strip was inserted into the glass Pasteur pipette cartridge (10 cm long, Fisher Scientific, Pittsburgh, Pennsylvania, USA). The chemicals were tested randomly, stimulus duration time was 0.5 second and an interval of at least 30 seconds was taken between stimulations for antennal recovery. Chemical odorants used for the EAG recordings are the same as used in the binding assays. […] The paraffin oil (Fluka, Buchs, Switzerland) was used to dissolve the chemicals and treated as control compound [71]. Each chemical was tested against six individual male and female antennae, and each antenna was tested three times. The signals were passed through a high impedance amplifier (CS-05 model, Syntech, the Netherlands), EAG responses were initially measured in millivolts (peak height of depolarization) and then converted to normalized responses by the Syntech EAG 2000 program (Syntech, the Netherlands). Response to the solvent control was subtracted from all normalized response and the normalized EAG responses were expressed as a percentage to the reference compound response. All results are presented as mean (±SE) normalized EAG responses. EAG responses between male and female individuals were compared with the Student t-test using SAS software.

Assay [2] concerns AlinCSP1-3. Nature of the assay: Fluorescence competitive binding assay, statements for the three CSPs together. Also noted: species or system Adelphocoris lineolatus. The procedure:
(§1) Fluorescence binding assays were performed on an F-380 fluorescence spectrophotometer (Tianjin, China) in a 1 cm light path quartz cuvette. The slit width used for excitation and emission was both 10 nm. The fluorescent probe N-phenyl-1-naphthylamine (1-NPN) was dissolved in methanol with a 1 mM stock solution. 1-NPN was excited at 337 nm and emission spectra were recorded between 390 nm and 530 nm.
(§2) All values reported were obtained from three independent measurements.
(§3) For determining binding constants, the intensity values corresponding to the maximum fluorescence emission were plotted against free ligand concentration. Bound ligand was evaluated from the values of fluorescence intensity assuming the protein was 100% active, with a stoichiometry of 1∶1 protein:ligand at saturation. The curves were linearized using Scatchard Plot. Dissociation constants of the competitors were calculated from the corresponding IC50 values, using the equation: KD = [IC50]/(1+[1-NPN]/K1-NPN), where [1-NPN] is the free concentration of 1-NPN and K1-NPN is the dissociation constant of the AlinCSP1-3/1-NPN complex.

Assay [3] has as its target T1, AlinCSP2 (Adelphocoris lineolatus, UniProt E7BLG5). Nature of the assay: biochemical. Format: binding. Conditions: for Ki: Figure 7B legend. The procedure:
as §1, §2
(§4) For determining binding constants, the intensity values corresponding to the maximum fluorescence emission were plotted against free ligand concentration. Bound ligand was evaluated from the values of fluorescence intensity assuming the protein was 100% active, with a stoichiometry of 1∶1 protein:ligand at saturation. The curves were linearized using Scatchard Plot.

Assay [4] addresses T2, AlinCSP3 (Adelphocoris lineolatus, UniProt E7BLG4). Nature of the assay: biochemical. Format: binding. Conditions: for Ki: Figure 7B legend. The procedure: as §1, §2, §4
The target of assay [5] is T3, AlinCSP1 (Adelphocoris lineolatus, UniProt J7EJ71). Nature of the assay: biochemical. Format: binding. As to conditions: for Ki: Figure 7B legend. On the procedure:
as §1, §2, §4

Assay [6] concerns the target T1, AlinCSP2. Nature of the assay: Binding of fluorescent probe 1-NPN to AlinCSP2 (titration, Scatchard plot). Conditions: 2 µM protein, 1-NPN 2-16 µM, read-out: dissociation constant of the AlinCSP2/1-NPN complex. On the procedure: as §1, §2, §3
The target of assay [7] is T2, AlinCSP3. Nature of the assay: Binding of fluorescent probe 1-NPN to AlinCSP3 (titration, Scatchard plot). Conditions: 2 µM protein, 1-NPN 2-16 µM, read-out: dissociation constant of the AlinCSP3/1-NPN complex. The procedure:
as §1, §2, §3

The target of assay [8] is T3, AlinCSP1. Nature of the assay: Binding of fluorescent probe 1-NPN to AlinCSP1 (titration, Scatchard plot). As to conditions: 2 µM protein, 1-NPN 2-16 µM, read-out: dissociation constant of the AlinCSP1/1-NPN complex. The procedure: as §1, §2, §3
[9] abbreviates: u.d. = KD not calculated because IC50>50 µM, read-out: KD (µM) AlinCSP2, given as u.d.
The mark [10] stands for this setting: u.d. = KD not calculated because IC50>50 µM, read-out: KD (µM) AlinCSP3, given as u.d.
Where [11] appears, read: u.d. = KD not calculated because IC50>50 µM, read-out: KD (µM) AlinCSP1, given as u.d.
Where [12] appears, read: KD (µM) AlinCSP2, 1-NPN and protein at 2 µM, 50 mM Tris-HCl pH 7.4, KD calculated from IC50, mean of three measurements.
Where [13] appears, read: KD (µM) AlinCSP3, 1-NPN and protein at 2 µM, 50 mM Tris-HCl pH 7.4, KD calculated from IC50, mean of three measurements.
[14] abbreviates: KD (µM) AlinCSP1, 1-NPN and protein at 2 µM, 50 mM Tris-HCl pH 7.4, KD calculated from IC50, mean of three measurements.
Setting [15] is: 1-NPN and protein at 2 µM, 50 mM Tris-HCl pH 7.4, KD calculated from IC50, mean of three measurements, read-out: KD (µM) AlinCSP3.
Setting [16] is: 1-NPN and protein at 2 µM, 50 mM Tris-HCl pH 7.4, KD calculated from IC50, mean of three measurements, read-out: KD (µM) AlinCSP1.
[17] abbreviates: 1-NPN and protein at 2 µM, 50 mM Tris-HCl pH 7.4, KD calculated from IC50, mean of three measurements, read-out: KD (µM) AlinCSP2.

T3 sequence (J7EJ71 entry or part of it): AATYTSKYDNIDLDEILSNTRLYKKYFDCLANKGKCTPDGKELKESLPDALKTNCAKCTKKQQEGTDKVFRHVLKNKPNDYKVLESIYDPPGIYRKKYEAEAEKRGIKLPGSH
T1 sequence (E7BLG5 entry or part of it): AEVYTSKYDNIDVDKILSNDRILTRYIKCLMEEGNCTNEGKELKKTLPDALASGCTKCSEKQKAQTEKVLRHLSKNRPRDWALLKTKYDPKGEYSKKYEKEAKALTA
T2 sequence (E7BLG4 entry or part of it): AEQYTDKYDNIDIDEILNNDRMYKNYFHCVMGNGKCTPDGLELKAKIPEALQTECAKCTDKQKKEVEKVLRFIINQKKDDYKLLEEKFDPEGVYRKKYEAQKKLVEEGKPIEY

For `CCCC(=O)OCC` [Ethyl butyrate], in assay [1], the “EAG response in words” value was “elicited significant antennal responses from both male and female; also recorded: elicited high EAG responses”. For the same molecule, the “binding to the three CSPs in words” value in assay [2] was “failed to bind with any of the three CSPs”. For the same molecule, the Ki stood at 92.5 µM in assay [3], 101 µM in assay [4] and 95.2 µM in assay [5]. The Kd in assay [3] (setting [9]), in assay [4] (setting [10]) and in assay [5] (setting [11]) was above 50 µM throughout.

Take `CCC/C=C/COC(=O)CCC` [(E)-2-Hexenyl butyrate]: in assay [1], the “EAG response in words” value is “elicited significant antennal responses from both male and female; also recorded: elicited high EAG responses”. Moreover, the “binding to the three CSPs in words” value in assay [2] was “failed to bind with any of the three CSPs”. Moreover, the Ki in assay [3] was 113 µM; in assay [4] it was 148 µM. For the same molecule, the Kd in assay [3] (setting [9]), in assay [4] (setting [10]) and in assay [5] (setting [11]) was above 50 µM throughout.

For the molecule `c1ccc(Nc2cccc3ccccc23)cc1` [1-NPN, N-phenyl-1-naphthylamine], the Kd amounted to 1920 nM in assay [6], 4.45 µM in assay [7] and 1830 nM in assay [8].

Take `CCCCCCCCCCCCCCCC(=O)O` [hexadecanoic acid]: the “EAG response in words” value in assay [1] was “did not elicit notably EAG responses”. In assay [2] (displacement of 1-NPN, all three CSPs), the IC50 is above 50 µM. The Ki stood at 137 µM in assay [3] and 118 µM in assay [5]. The Kd in assay [3] (setting [9]), in assay [4] (setting [10]) and in assay [5] (setting [11]) was above 50 µM each time.

For `CCCCC(C)=O` [2-Hexanone], the “EAG response, male versus female antennae” value in assay [1] is recorded as “significantly higher EAG responses from male antennae than from female antennae”. The Kd is 20.4 ± 1.82 µM in assay [3] (setting [12]), 22.5 ± 1.88 µM in assay [4] (setting [13]) and 19.5 ± 1.73 µM in assay [5] (setting [14]).

Turning to `CCCCC(C)O` (stereo not drawn) [2-Hexanol], the “EAG response, male versus female antennae” value in assay [1] is given as “significantly higher EAG responses from female antennae than from male antennae”. Further, the Kd in assay [3] (setting [9]) is above 50 µM; in assay [4] (setting [15]), 37.1 ± 1.01 µM; in assay [5] (setting [16]), 45.4 ± 2.43 µM.

As for `COC(=O)c1ccccc1O` [Methyl salicylate], in assay [1], the “EAG response in words” value was “failed to elicit high EAG response”. The Kd in assay [3] (setting [12]) is 13.3 ± 1.71 µM; in assay [4] (setting [13]), 11.8 ± 1.89 µM; in assay [5] (setting [14]) it was 8.67 ± 1.92 µM.

With `C=C1CC/C=C(\C)CC[C@@H]2[C@@H]1CC2(C)C` [β-Caryophyllene], in assay [1], the “EAG response in words” value is “no notable EAG response”. Also, the “binding to AlinCSP2 in words” value in assay [3] is “failed to bind with AlinCSP2”. The Kd was above 50 µM in assay [3] (KD (µM) AlinCSP2, given as u.d., u.d. = KD not calculated because IC50>50 µM); 12.3 ± 2.42 µM in assay [4] (setting [13]); 9.22 ± 1.08 µM in assay [5] (setting [14]).

Regarding `CC/C=C\CCOC(C)=O` [(Z)-3-Hexenyl acetate], the “EAG response, male versus female antennae” value in assay [1] is “significantly higher EAG responses from female antennae than from male antennae”. Moreover, the “EAG response in words” value in assay [1] was “only elicited a high EAG response in the female”. For the same molecule, the Kd in assay [3] (setting [17]) was 15.8 ± 1.68 µM; in assay [4] (setting [15]), 12.2 ± 1.82 µM; in assay [5] (setting [16]) it was 7.37 ± 2.49 µM.

On to `C=CC(=C)CCC=C(C)C` [Myrcene], for which the “EAG response in words” value in assay [1] is recorded as “failed to elicit high EAG response”. For the same molecule, the Kd in assay [3] (setting [17]) was 13 ± 1.72 µM; in assay [4] (setting [15]) it was 10.7 ± 1.64 µM; in assay [5] (setting [16]) it was 5.42 ± 0.93 µM.

For `C=C1CCC2CC1C2(C)C` (stereo not drawn) [β-Pinene], the “EAG response in words” value in assay [1] is on record as “failed to elicit high EAG response”. Further, the Kd in assay [3] (setting [12]) is 11.1 ± 1.91 µM; in assay [4] (setting [13]) it was 12.4 ± 2.09 µM; in assay [5] (setting [14]), 7.07 ± 1.41 µM.

For the molecule `CCCCCCCC` [Octane], in assay [1], the “EAG response, male versus female antennae” value is given as “significantly higher EAG responses from male antennae than from female antennae”. Moreover, the Kd in assay [3] (setting [17]) was 44.4 ± 1.36 µM; in assay [4] (setting [15]), 45.4 ± 1.54 µM; in assay [5] (setting [16]) it was 42.1 ± 1.42 µM.

In the case of `Cc1ccc(C=O)cc1C` [3,4-Dimethyl-benzaldehe, 3,4-Dimethyl-benzaldehyde], the “EAG response, male versus female antennae” value in assay [1] is “significantly higher EAG responses from female antennae than from male antennae”. Besides, the Kd in assay [3] (setting [9]), in assay [4] (setting [10]) and in assay [5] (setting [11]) was above 50 µM each time.

On to `CC/C=C\CCO` [(Z)-3-Hexen-1-ol], for which, in assay [1], the “EAG response in words” value is “elicited significant antennal responses from both male and female”. Also, the Kd is 15.1 ± 1.79 µM in assay [3] (setting [12]), 16.3 ± 1.98 µM in assay [4] (setting [13]) and 12.5 ± 2.32 µM in assay [5] (setting [14]).

For `C/C1=C\CC/C(C)=C/CC(C)(C)/C=C/C1` [α-Humulene], in assay [1], the “EAG response in words” value is “no notable EAG response”. Moreover, in assay [3], the “binding to AlinCSP2 in words” value is “failed to bind with AlinCSP2”. Further, the Kd in assay [3] (setting [9]) was above 50 µM; in assay [4] (setting [15]), 8.94 ± 2.97 µM; in assay [5] (setting [16]), 9.96 ± 0.89 µM.

Values taken from article PMC3416781, “Functional Characterizations of Chemosensory Proteins of the Alfalfa Plant Bug Adelphocoris lineolatus Indicate Their Involvement in Host Recognition” (PLoS ONE, 2012).
